Converted amounts (≈) assume the structure as drawn.
Legend:
[1] = test system: Streptococcus pyogenes (Isolate ID ATCC 51339); test: Antibacterial activity, MIC, S. pyogenes; format: cell-based; conditions: Streptococcus pyogenes, ATCC51339, Gram positive strain; broth microdilution or agar dilution
Procedure, shortened: (§1)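 MICs were determined by broth microdilution or agar dilution following CLSI guidelines (M7-A7), testing susceptibility in liquid or on solid media.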

[2] = test system: Staphylococcus aureus (Isolate ID ATCC 29213); test: Antibacterial activity, MIC, S. aureus; format: cell-based; conditions: Staphylococcus aureus, ATCC29213, Gram positive strain; broth microdilution or agar dilution
Procedure, shortened: as §1

[3] = test system: Haemophilus influenzae (Isolate ID ATCC 49247); test: Antibacterial activity, MIC, H. influenzae; format: cell-based; conditions: Haemophilus influenzae, ATCC49247; Gram negative strain; broth microdilution or agar dilution
Procedure, shortened: as §1

[4] = test system: Enterococcus faecalis (Isolate ID ATCC 29212); test: Antibacterial activity, MIC, E. faecalis; format: cell-based; conditions: Enterococcus faecalis, ATCC29212; Gram positive strain; broth microdilution or agar dilution
Procedure, shortened: as §1

physchem = conditions: kinetic from dmso stock
Procedure, shortened: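 DMSO doubling dilutions were diluted twenty-fold into 100 mM citrate (pH 4), PBS (pH 7.4) or carbonate-bicarbonate (pH 9). After 24 h equilibration at room temperature, absorbance was read at 620 nm. The reported value is the highest concentration without measurable precipitate.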

[5] = pH 7.4, aqueous buffer, Max Solubility
[6] = pH 7.4, aqueous buffer, Solubility (pH 7.4)
[7] = pH 7.4, aqueous buffer, Solubility Range
[8] = pH 7.4, aqueous buffer, Solubility Range (maximum solubility)
[9] = pH 9, aqueous buffer, Max Solubility
[10] = pH 9, aqueous buffer, Solubility Range (maximum solubility)

SMILES | MIC [1] | MIC [2] | MIC [3] | MIC [4] | solubility at 24 h (physchem; [5]) | solubility at 24 h (physchem; [6]) | solubility at 24 h (physchem; [7]) | solubility at 24 h (physchem; [8]) | solubility at 24 h (physchem; [9]) | solubility at 24 h (physchem; [10]) | solubility at 24 h (physchem; pH 4, aqueous buffer, Max Solubility) | solubility at 24 h (physchem; pH 4, aqueous buffer, Solubility Range (maximum solubility))
CCNC(=O)Nc1nc2cc(-c3cnc(N4CCC(C)(C(=O)O)CC4)nc3)cc(-c3nc(OC)ccc3N)c2s1 [Compound 62] | 0.25 to 1 µg/mL (≈ 0.444 to 1.78 µM) | 0.25 to 1 µg/mL (≈ 0.444 to 1.78 µM) | 1 to 16 µg/mL (≈ 1.78 to 28.4 µM) | ≤ 0.25 µg/mL | ≥ 800 µg/mL | ≥ 800 µg/mL | > 800 µg/mL | > 800 µg/mL |  |  |  | 
CCNC(=O)Nc1nc2cc(-c3cnc(N4CCC(C)(C(=O)O)CC4)nc3)cc(-c3ncc(C#N)cc3C)c2s1 [Compound 69] | 0.25 to 1 µg/mL (≈ 0.449 to 1.8 µM) | 1 to 16 µg/mL (≈ 1.8 to 28.7 µM) | 1 to 16 µg/mL (≈ 1.8 to 28.7 µM) | ≤ 0.25 µg/mL | ≥ 800 µg/mL | ≥ 800 µg/mL | > 800 µg/mL | > 800 µg/mL |  |  |  | 
CCNC(=O)Nc1nc2cc(-c3cnc(N4CCC(C)(C(=O)O)CC4)nc3)cc(-c3cncc(OC(C)(C)C)n3)c2s1 [Compound 73] | 1 to 16 µg/mL (≈ 1.69 to 27.1 µM) | 0.25 to 1 µg/mL (≈ 0.423 to 1.69 µM) | > 16 µg/mL | ≤ 0.25 µg/mL |  | 400 µg/mL (≈ 677 µM) | 400 to 800 µg/mL (≈ 677 to 1350 µM) |  | ≥ 800 µg/mL | > 800 µg/mL |  | 
CCNC(=O)Nc1nc2cc(-c3cnc(N4CCC(C)(C(=O)O)CC4)nc3)cc(C3CCN(C(C)=O)CC3)c2s1 [Compound 74, 1-[5-[7-(1-acetyl-4-piperidyl)-2-(ethylcarbamoylamino)-1,3-benzothiazol-5-yl]pyrimidin-2-yl]-4-methyl-piperidine-4-carboxylic acid] | 1 to 16 µg/mL (≈ 1.77 to 28.3 µM) | > 16 µg/mL | > 16 µg/mL | 1 to 16 µg/mL (≈ 1.77 to 28.3 µM) | ≥ 800 µg/mL | ≥ 800 µg/mL | > 800 µg/mL | > 800 µg/mL |  |  |  | 
CCNC(=O)Nc1nc2cc(-c3cnc(N4CCC(C)(C(=O)O)CC4)nc3)cc(-c3cnc(N(C)C)s3)c2s1 [Compound 75] | 0.25 to 1 µg/mL (≈ 0.441 to 1.76 µM) | 0.25 to 1 µg/mL (≈ 0.441 to 1.76 µM) | 1 to 16 µg/mL (≈ 1.76 to 28.2 µM) | ≤ 0.25 µg/mL |  | 25 µg/mL (≈ 44.1 µM) | 12.5 to 400 µg/mL (≈ 22.1 to 706 µM) |  | 100 µg/mL (≈ 176 µM) | 12.5 to 400 µg/mL (≈ 22.1 to 706 µM) |  | 
CCNC(=O)Nc1nc2cc(-c3cnc(N4CCC(C)(C(=O)O)CC4)nc3)cc(-c3cnc(N4CCOCC4)s3)c2s1 [Compound 76] | 0.25 to 1 µg/mL (≈ 0.411 to 1.64 µM) | 1 to 16 µg/mL (≈ 1.64 to 26.3 µM) | > 16 µg/mL | ≤ 0.25 µg/mL | ≥ 800 µg/mL | ≥ 800 µg/mL | > 800 µg/mL | > 800 µg/mL |  |  |  | 
CCNC(=O)Nc1nc2cc(-c3cnc(N4CCC(C)(C(=O)O)CC4)nc3)cc(-c3cnc(OCC)s3)c2s1 [Compound 78] | 0.25 to 1 µg/mL (≈ 0.44 to 1.76 µM) | 0.25 to 1 µg/mL (≈ 0.44 to 1.76 µM) | > 16 µg/mL | ≤ 0.25 µg/mL |  | 400 µg/mL (≈ 705 µM) | 400 to 800 µg/mL (≈ 705 to 1410 µM) |  | ≥ 800 µg/mL | > 800 µg/mL |  | 
CCNC(=O)Nc1nc2cc(-c3cnc(N4CCC(C)(C(=O)O)CC4)nc3)cc(-c3ccn(C)c(=O)c3)c2s1 [Compound 79] | 1 to 16 µg/mL (≈ 1.83 to 29.2 µM) | > 16 µg/mL | > 16 µg/mL | 1 to 16 µg/mL (≈ 1.83 to 29.2 µM) | ≥ 800 µg/mL | ≥ 800 µg/mL | > 800 µg/mL | > 800 µg/mL |  |  |  | 
CCNC(=O)Nc1nc2cc(-c3cnc(N4CCC(C)(C(=O)O)CC4)nc3)cc(-c3cc(=O)n(CCOC)cn3)c2s1 [Compound 80] | 1 to 16 µg/mL (≈ 1.69 to 27 µM) | > 16 µg/mL | 1 to 16 µg/mL (≈ 1.69 to 27 µM) | 1 to 16 µg/mL (≈ 1.69 to 27 µM) | 400 µg/mL (≈ 675 µM) | 400 µg/mL (≈ 675 µM) | 400 to 800 µg/mL (≈ 675 to 1350 µM) | 400 to 800 µg/mL (≈ 675 to 1350 µM) |  |  |  | 

Now from value to compound:

MIC [1] | MIC [2] | MIC [3] | MIC [4] | solubility at 24 h (physchem; [5]) | solubility at 24 h (physchem; [6]) | solubility at 24 h (physchem; [7]) | solubility at 24 h (physchem; [8]) | solubility at 24 h (physchem; [9]) | solubility at 24 h (physchem; [10]) | solubility at 24 h (physchem; pH 4, aqueous buffer, Max Solubility) | solubility at 24 h (physchem; pH 4, aqueous buffer, Solubility Range (maximum solubility)) | SMILES
≤ 0.25 µg/mL | ≤ 0.25 µg/mL | 1 to 16 µg/mL (≈ 1.83 to 29.2 µM) | ≤ 0.25 µg/mL | ≥ 800 µg/mL | ≥ 800 µg/mL | > 800 µg/mL | > 800 µg/mL |  |  |  |  | CCNC(=O)Nc1nc2cc(-c3cnc(N4CCC(C)(C(=O)O)CC4)nc3)cc(-c3ncccc3OC)c2s1 [Compound 61]
≤ 0.25 µg/mL | ≤ 0.25 µg/mL | 1 to 16 µg/mL (≈ 1.78 to 28.5 µM) | ≤ 0.25 µg/mL |  | 400 µg/mL (≈ 714 µM) | 400 to 800 µg/mL (≈ 714 to 1430 µM) |  | ≥ 800 µg/mL | > 800 µg/mL |  |  | CCNC(=O)Nc1nc2cc(-c3cnc(N4CCC(C)(C(=O)O)CC4)nc3)cc(-c3ncc(C#N)cc3F)c2s1 [Compound 63]
≤ 0.25 µg/mL | ≤ 0.25 µg/mL | 1 to 16 µg/mL (≈ 1.78 to 28.5 µM) | ≤ 0.25 µg/mL | ≥ 800 µg/mL | ≥ 800 µg/mL | > 800 µg/mL | > 800 µg/mL |  |  |  |  | CCNC(=O)Nc1nc2cc(-c3cnc(N4CCC(C)(C(=O)O)CC4)nc3)cc(-c3nc(C)ccc3OC)c2s1 [Compound 64]
≤ 0.25 µg/mL | ≤ 0.25 µg/mL | 1 to 16 µg/mL (≈ 1.8 to 28.7 µM) | ≤ 0.25 µg/mL | 12.5 µg/mL (≈ 22.5 µM) | 12.5 µg/mL (≈ 22.5 µM) | 12.5 to 400 µg/mL (≈ 22.5 to 719 µM) | 12.5 to 400 µg/mL (≈ 22.5 to 719 µM) |  |  |  |  | CCNC(=O)Nc1nc2cc(-c3cnc(N4CCC(C)(C(=O)O)CC4)nc3)cc(-c3ncc(C)cc3C#N)c2s1 [Compound 65]
≤ 0.25 µg/mL | ≤ 0.25 µg/mL | 0.25 to 1 µg/mL (≈ 0.469 to 1.88 µM) | ≤ 0.25 µg/mL | ≥ 800 µg/mL | ≥ 800 µg/mL | > 800 µg/mL | > 800 µg/mL |  |  |  |  | CCNC(=O)Nc1nc2cc(-c3cnc(N4CCC(C)(C(=O)O)CC4)nc3)cc(-c3cnc(C)cn3)c2s1 [Compound 66]
≤ 0.25 µg/mL | ≤ 0.25 µg/mL | 1 to 16 µg/mL (≈ 1.93 to 30.9 µM) | ≤ 0.25 µg/mL | ≥ 800 µg/mL | ≥ 800 µg/mL | > 800 µg/mL | > 800 µg/mL |  |  |  |  | CCNC(=O)Nc1nc2cc(-c3cnc(N4CCC(C)(C(=O)O)CC4)nc3)cc(-c3ccncn3)c2s1 [Compound 67]
≤ 0.25 µg/mL | ≤ 0.25 µg/mL | 0.25 to 1 µg/mL (≈ 0.445 to 1.78 µM) | ≤ 0.25 µg/mL | ≥ 800 µg/mL | ≥ 800 µg/mL | > 800 µg/mL | > 800 µg/mL |  |  |  |  | CCNC(=O)Nc1nc2cc(-c3cnc(N4CCC(C)(C(=O)O)CC4)nc3)cc(-c3cc(OCC)ccn3)c2s1 [Compound 68]
≤ 0.25 µg/mL | ≤ 0.25 µg/mL | 1 to 16 µg/mL (≈ 1.79 to 28.7 µM) | ≤ 0.25 µg/mL | ≥ 800 µg/mL | ≥ 800 µg/mL | > 800 µg/mL | > 800 µg/mL |  |  |  |  | CCNC(=O)Nc1nc2cc(-c3cnc(N4CCC(C)(C(=O)O)CC4)nc3)cc(-c3nccc4occc34)c2s1 [Compound 70]
≤ 0.25 µg/mL | 0.25 to 1 µg/mL (≈ 0.427 to 1.71 µM) | 0.25 to 1 µg/mL (≈ 0.427 to 1.71 µM) | ≤ 0.25 µg/mL |  | 6.25 µg/mL (≈ 10.7 µM) | < 12.5 µg/mL |  |  |  | 50 µg/mL (≈ 85.4 µM) | 12.5 to 400 µg/mL (≈ 21.3 to 683 µM) | CCNC(=O)Nc1nc2cc(-c3cnc(N4CCC(C)(C(=O)O)CC4)nc3)cc(-c3nccc(N(C)C)c3C#N)c2s1 [Compound 71]
≤ 0.25 µg/mL | ≤ 0.25 µg/mL | 0.25 to 1 µg/mL (≈ 0.502 to 2.01 µM) | ≤ 0.25 µg/mL | ≥ 800 µg/mL | ≥ 800 µg/mL | > 800 µg/mL | > 800 µg/mL |  |  |  |  | CCNC(=O)Nc1nc2cc(-c3cnc(N4CCC(C)(C(=O)O)CC4)nc3)cc(/C=N/OC)c2s1 [Compound 72, (E)-1-(5-(2-(3-ethylureido)-7-((methoxyimino)methyl)benzo[d]thiazol-5-yl)pyrimidin-2-yl)-4-methylpiperidine-4-carboxylic acid]
≤ 0.25 µg/mL | ≤ 0.25 µg/mL | 1 to 16 µg/mL (≈ 1.81 to 29 µM) | ≤ 0.25 µg/mL |  | 200 µg/mL (≈ 363 µM) | 12.5 to 400 µg/mL (≈ 22.7 to 725 µM) |  | 400 µg/mL (≈ 725 µM) | 400 to 800 µg/mL (≈ 725 to 1450 µM) |  |  | CCNC(=O)Nc1nc2cc(-c3cnc(N4CCC(C)(C(=O)O)CC4)nc3)cc(-c3cnc(CC)s3)c2s1 [Compound 77]
